Results from ChEMBL document CHEMBL6134848, “Deuteration Strategy-Inspired Design of Novel Diarylpyrimidine Derivatives as Potent Non-Nucleoside Reverse Transcriptase Inhibitors Featuring Improved Efficacy, Selectivity, and Druggability” (J Med Chem, 2025).

Key:
[1] = tested on: Human immunodeficiency virus 1; test: Antiviral activity against wild-type HIV-1 IIIB infected in human MT4 cells assessed as protection against virus-induced cytopathicity measured after 5 days post-infection by MTT assay; type: functional, organism-based; details: Human immunodeficiency virus 1, IIIB, MT4, 120 h
[2] = Selectivity index, ratio of CC50 for cytotoxicity against human MT4 cells to EC50 for antiviral activity against wild-type HIV-1 IIIB infected in human MT4 cells; type: toxicity, cell-based; details: read-out: Ratio CC50/EC50
[3] = tested on: Human immunodeficiency virus 1; test: Antiviral activity against drug-resistant HIV-1 harboring RT L100I mutant infected in human MT4 cells assessed as protection against virus-induced cytopathicity measured after 5 days post-infection by MTT assay; type: functional, organism-based; details: Human immunodeficiency virus 1, MT4, 120 h
[4] = tested on: Human immunodeficiency virus 1; test: Antiviral activity against drug-resistant HIV-1 harboring RT RES056 mutant infected in human MT4 cells assessed as protection against virus-induced cytopathicity measured after 5 days post-infection by MTT assay; type: functional, organism-based; details: Human immunodeficiency virus 1, MT4, 120 h
[5] = molecular target: Human immunodeficiency virus type 1 reverse transcriptase (Human immunodeficiency virus 1, UniProt Q72547); test: Inhibition of recombinant wild type HIV-1 reverse transcriptase incubated for 40 mins in presence of poly(rA) template/oligo(dT)16 primer by Pico-Green dye based analysis
[6] = molecular target: T1, Voltage-gated inwardly rectifying potassium channel KCNH2 (Homo sapiens, UniProt Q12809); test: Inhibition of hERG expressed in CHO cells by manual patch-clamp electrophysiology; type: toxicity, cell-based
T1 sequence (Q12809 whole entry): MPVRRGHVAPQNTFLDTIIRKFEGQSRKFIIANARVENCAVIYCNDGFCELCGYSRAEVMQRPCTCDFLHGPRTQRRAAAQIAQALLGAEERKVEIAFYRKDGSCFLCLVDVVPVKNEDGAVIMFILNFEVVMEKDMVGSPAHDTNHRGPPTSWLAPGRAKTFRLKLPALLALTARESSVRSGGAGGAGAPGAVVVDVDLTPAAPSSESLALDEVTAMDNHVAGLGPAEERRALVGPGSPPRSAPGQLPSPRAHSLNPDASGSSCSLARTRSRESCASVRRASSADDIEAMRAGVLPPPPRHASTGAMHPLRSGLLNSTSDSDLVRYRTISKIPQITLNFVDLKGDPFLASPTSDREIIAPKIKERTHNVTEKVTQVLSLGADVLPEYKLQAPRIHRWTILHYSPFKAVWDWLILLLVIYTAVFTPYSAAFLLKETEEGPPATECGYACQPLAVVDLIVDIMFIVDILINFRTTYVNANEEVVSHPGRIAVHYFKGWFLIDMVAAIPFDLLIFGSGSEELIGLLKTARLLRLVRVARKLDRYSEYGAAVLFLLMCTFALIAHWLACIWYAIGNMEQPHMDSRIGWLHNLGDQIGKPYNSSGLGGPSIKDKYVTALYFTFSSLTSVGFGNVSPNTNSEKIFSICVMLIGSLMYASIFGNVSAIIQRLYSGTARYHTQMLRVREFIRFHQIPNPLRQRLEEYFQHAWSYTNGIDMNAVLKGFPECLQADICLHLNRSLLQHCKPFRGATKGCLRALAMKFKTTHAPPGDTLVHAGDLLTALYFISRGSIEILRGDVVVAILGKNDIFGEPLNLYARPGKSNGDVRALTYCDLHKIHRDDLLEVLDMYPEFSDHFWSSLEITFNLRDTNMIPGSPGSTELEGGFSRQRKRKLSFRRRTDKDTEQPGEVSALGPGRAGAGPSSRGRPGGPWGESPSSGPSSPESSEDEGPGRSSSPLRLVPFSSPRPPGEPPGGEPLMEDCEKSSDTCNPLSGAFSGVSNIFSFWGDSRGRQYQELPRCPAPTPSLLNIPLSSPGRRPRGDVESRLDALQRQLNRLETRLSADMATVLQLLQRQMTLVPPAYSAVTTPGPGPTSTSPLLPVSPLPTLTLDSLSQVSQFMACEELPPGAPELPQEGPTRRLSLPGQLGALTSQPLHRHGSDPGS

[7] = molecular target: T1, Voltage-gated inwardly rectifying potassium channel KCNH2; test: Inhibition of hERG expressed in CHO cells assessed as fold increase by manual patch-clamp electrophysiology relative to RPV; type: toxicity, cell-based
Cytochrome P450 2B6 = molecular target: T2, Cytochrome P450 2B6 (Homo sapiens, UniProt P20813); test: Inhibition of CYP2B6 in human liver microsomes using bupropion as substrate incubated for 15 to 45 mins by; type: ADME, Microsome
T2 sequence (P20813 whole entry): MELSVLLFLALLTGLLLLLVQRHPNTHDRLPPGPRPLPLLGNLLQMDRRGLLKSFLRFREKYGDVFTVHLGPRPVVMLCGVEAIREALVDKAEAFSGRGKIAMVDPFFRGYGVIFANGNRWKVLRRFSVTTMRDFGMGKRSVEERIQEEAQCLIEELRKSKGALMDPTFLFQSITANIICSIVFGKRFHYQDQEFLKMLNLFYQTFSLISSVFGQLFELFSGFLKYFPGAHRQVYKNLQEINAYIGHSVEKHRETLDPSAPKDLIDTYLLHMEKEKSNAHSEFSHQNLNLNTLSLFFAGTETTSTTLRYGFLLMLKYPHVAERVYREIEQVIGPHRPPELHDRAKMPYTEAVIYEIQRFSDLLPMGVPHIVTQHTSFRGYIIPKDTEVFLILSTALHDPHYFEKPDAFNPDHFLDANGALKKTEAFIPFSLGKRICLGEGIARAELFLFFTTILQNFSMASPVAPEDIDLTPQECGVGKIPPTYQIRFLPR

Cytochrome P450 2C8 = molecular target: T3, Cytochrome P450 2C8 (Homo sapiens, UniProt P10632); test: Inhibition of CYP2C8 in human liver microsomes using amodiaquine as substrate incubated for 15 to 45 mins by; type: ADME, Microsome
T3 sequence (P10632 whole entry): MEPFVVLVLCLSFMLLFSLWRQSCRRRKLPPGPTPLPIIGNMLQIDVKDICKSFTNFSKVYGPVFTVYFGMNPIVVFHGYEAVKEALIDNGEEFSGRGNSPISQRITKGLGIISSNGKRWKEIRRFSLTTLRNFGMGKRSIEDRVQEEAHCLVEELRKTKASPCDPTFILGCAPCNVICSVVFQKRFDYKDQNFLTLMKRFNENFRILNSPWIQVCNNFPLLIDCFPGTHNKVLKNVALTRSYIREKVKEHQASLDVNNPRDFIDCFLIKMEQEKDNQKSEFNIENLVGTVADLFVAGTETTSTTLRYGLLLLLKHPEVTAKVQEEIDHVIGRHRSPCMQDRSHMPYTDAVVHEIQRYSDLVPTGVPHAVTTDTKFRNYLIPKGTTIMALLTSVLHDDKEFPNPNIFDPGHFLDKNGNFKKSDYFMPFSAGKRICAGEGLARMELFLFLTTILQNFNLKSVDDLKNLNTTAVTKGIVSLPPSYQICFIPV

Cytochrome P450 3A4 [8] = molecular target: T4, Cytochrome P450 3A4 (Homo sapiens, UniProt P08684); test: Inhibition of CYP3A4 in human liver microsomes using midazolam as substrate incubated for 15 to 45 mins by; type: ADME, Microsome
T4 sequence (P08684 whole entry): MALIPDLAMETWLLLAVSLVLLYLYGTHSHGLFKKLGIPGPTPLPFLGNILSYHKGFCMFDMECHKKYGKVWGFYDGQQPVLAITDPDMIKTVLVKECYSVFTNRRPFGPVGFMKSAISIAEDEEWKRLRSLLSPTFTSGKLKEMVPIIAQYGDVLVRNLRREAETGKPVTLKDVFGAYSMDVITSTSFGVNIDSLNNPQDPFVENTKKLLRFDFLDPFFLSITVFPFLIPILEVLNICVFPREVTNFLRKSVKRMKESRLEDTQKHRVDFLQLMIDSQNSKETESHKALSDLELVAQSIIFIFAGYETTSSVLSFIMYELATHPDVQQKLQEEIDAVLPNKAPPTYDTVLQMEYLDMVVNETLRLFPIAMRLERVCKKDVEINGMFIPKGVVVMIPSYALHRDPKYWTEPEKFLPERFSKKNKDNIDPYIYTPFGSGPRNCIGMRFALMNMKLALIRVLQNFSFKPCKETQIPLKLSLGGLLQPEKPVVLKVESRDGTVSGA

Cytochrome P450 3A4 [9] = molecular target: T4, Cytochrome P450 3A4; test: Inhibition of CYP3A4 in human liver microsomes using testosterone as substrate incubated for 15 to 45 mins by; type: ADME, Microsome
[10] = Stability in human plasma assessed as compound remaining at 1 uM measured after 0.5 hrs by LC-MS/MS analysis; type: ADME, cell-free; details: read-out: Stability
[11] = Stability in human plasma assessed as compound remaining at 1 uM measured after 2 hrs by LC-MS/MS analysis; type: ADME, cell-free; details: read-out: Stability
[12] = Metabolic stability in rat liver microsomes assessed as half life at 1 uM measured up to 45 mins by LC/MS/MS analysis; type: ADME, Microsome; details: 0.75 h
[13] = Metabolic stability in dog liver microsomes assessed as half life at 1 uM measured up to 45 mins by LC/MS/MS analysis; type: ADME, Canis lupus familiaris, Microsome; details: microsomes, 0.75 h, 1 µM
[14] = Drug metabolism in human liver microsomes assessed as metabolic fraction at 1 uM measured up to 45 mins by LC/MS/MS analysis; type: ADME, Microsome; details: microsomes, 0.75 h, 1 µM
[15] = Drug metabolism in rat liver microsomes assessed as metabolic fraction at 1 uM measured up to 45 mins by LC/MS/MS analysis; type: ADME, Microsome; details: 0.75 h
[16] = Protein binding in human plasma assessed as unbound fraction at 1 uM incubated for 6 hrs; type: ADME, cell-free
[17] = Cmax in Sprague-Dawley rat at 1 mg/kg, iv measured for 0.083 to 24 hrs by LC-MS/MS analysis; type: ADME, organism-based; details: in vivo, time 0.083-24 hrs
[18] = Tmax in Sprague-Dawley rat at 10 mg/kg, po measured for 0.083 to 24 hrs by LC-MS/MS analysis; type: ADME, organism-based; details: in vivo, time 0.083-24 hrs
[19] = Cmax in Sprague-Dawley rat at 10 mg/kg, po measured for 0.083 to 24 hrs by LC-MS/MS analysis; type: ADME, organism-based; details: in vivo, time 0.083-24 hrs
[20] = AUC (0 to t) in Sprague-Dawley rat at 10 mg/kg, po measured for 0.083 to 24 hrs by LC-MS/MS analysis; type: ADME, organism-based; details: in vivo, time 0.083-24 hrs
[21] = AUC (0 to infinity) in Sprague-Dawley rat at 10 mg/kg, po measured for 0.083 to 24 hrs by LC-MS/MS analysis; type: ADME, organism-based; details: in vivo, time 0.083-24 hrs
[22] = MRT (0 to infinity) in Sprague-Dawley rat at 10 mg/kg, po measured for 0.083 to 24 hrs by LC-MS/MS analysis; type: ADME, organism-based; details: in vivo, time 0.083-24 hrs
[23] = Oral bioavailability in Sprague-Dawley rat at 10 mg/kg measured for 0.083 to 24 hrs by LC-MS/MS analysis; type: ADME, organism-based; details: in vivo, time 0.083-24 hrs
[24] = Acute toxicity in ICR mouse assessed as pathological change in heart at 2000 mg/kg, IG measured for 14 days by H and E staining based analysis; type: organism-based; details: in vivo, po, 336 h, time 14 day
[25] = Acute toxicity in ICR mouse assessed as pathological change in lung at 2000 mg/kg, IG measured for 14 days by H and E staining based analysis; type: organism-based; details: in vivo, po, 336 h, time 14 day

Question: Which EC50 [1] does the source give for `[2H]C([2H])([2H])c1cc(C#N)cc(C([2H])([2H])[2H])c1Oc1nc(NC2CCN(Cc3ccc(S(N)(=O)=O)cc3)CC2)nc2ccsc12` here?
Answer: The EC50 was 0.99 nM.

Question: What about the selectivity ratio [2] of the same molecule?
Answer: The selectivity ratio was over 227000.

Question: What about the EC50 [3] of the same molecule?
Answer: Its EC50 is 2.61 nM.

Question: And the EC50 [4]?
Answer: Its EC50 is 75.1 nM.

Question: And the IC50 [5]?
Answer: Its IC50 is 190 nM.

Question: And the IC50 [6]?
Answer: The IC50 was 932 nM.

Question: What about the “fold change (FC)” value [7] of the same molecule?
Answer: The value was 1.9.

Question: And the IC50 (Cytochrome P450 2B6)?
Answer: The IC50 was over 10 µM.

Question: And the IC50 (Cytochrome P450 2C8)?
Answer: Its IC50 is over 10 µM.

Question: What about the IC50 (Cytochrome P450 3A4 [8]) of the same molecule?
Answer: Its IC50 is over 10 µM.

Question: What about the IC50 (Cytochrome P450 3A4 [9]) of the same molecule?
Answer: Its IC50 is over 10 µM.

Question: What about the remaining at 0.5 h, 1 µM [10] of the same molecule?
Answer: The remaining at 0.5 h, 1 µM was 98.9%.

Question: What about the remaining at 2 h, 1 µM [11] of the same molecule?
Answer: The remaining at 2 h, 1 µM was 92.7%.

Question: And the t1/2 [12]?
Answer: Its t1/2 is 19.2 min.

Question: And the t1/2 [13]?
Answer: The t1/2 was 20.4 min.

Question: What about the Fm [14] of the same molecule?
Answer: The Fm was 14.8%.

Question: What about the Fm [15] of the same molecule?
Answer: Its Fm is 28.9%.

Question: What about the Fu [16] of the same molecule?
Answer: The Fu was 0.453%.

Question: What about the Cmax [17] of the same molecule?
Answer: The Cmax was 1240 ng/mL.

Question: And the Tmax [18]?
Answer: Its Tmax is 30 min.

Question: And the Cmax [19]?
Answer: The Cmax was 553 ng/mL.

Question: What about the AUC(0-t) [20] of the same molecule?
Answer: Its AUC(0-t) is 1720 ng·h/mL.

Question: What about the AUC(0-inf) [21] of the same molecule?
Answer: Its AUC(0-inf) is 1800 ng·h/mL.

Question: And the MRT inf [22]?
Answer: Its MRT inf is 2.69 h.

Question: And the bioavailability [23]?
Answer: Its bioavailability is 29%.

Question: And the Activity [24]?
Answer: Its Activity is “Non-toxic”.

Question: And the Activity [25]?
Answer: The Activity was “Non-toxic”.
